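Each compound was tested at five concentrations against cells in 96-well plates for 48 hours. TGI marks complete inhibition of growth.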

Common to all, as to experiment: DTP human tumour cell line panel, 48 h
For assay [1], the system named is 786-0 renal.
For assay [2], the system named is A549 NSCLC.
Assay [3] has as its system CAKI-1 renal.
Assay [4] concerns CCRF-CEM leukemia.
The test system of assay [5] is COLO 205 colon.
The subject of assay [6] is DU-145 prostate.
Assay [7] has as its system EKVX NSCLC.
The test system of assay [8] is HCC-2998 colon.
Assay [9] deals with HCT-15 colon.
The subject of assay [10] is HL-60(TB) leukemia.
The test system of assay [11] is MDA-N.
Assay [12] concerns NCI-H460 lung.
For assay [13], the system named is SF-539 CNS.
In assay [14] the test system is SK-MEL-5 melanoma.
Assay [15] deals with SK-OV-3 ovarian.
Assay [16] relates to TK-10 renal.
Assay [17] has as its system A498 renal.

Take `c1ccc(Cn2c(-c3ccc(-c4ccccc4)cc3)cc3ccccc32)cc1`: the TGI in assay [1], in assay [2], in assay [3], in [4], in [5] and in assay [6] was greater than 100 µM each time. Also, the TGI in assay [7], in [8], in assay [9], in assay [10], in assay [11] and in [12] was greater than 100 µM in each case. Further, the TGI in assay [13], in assay [14], in [15] and in assay [16] was greater than 100 µM throughout.

For `Cc1cn(Cc2cccc(C3=NCCCN3)c2)c(=O)n(Cc2cccc(C3=NCCCN3)c2)c1=O`, the concentration for total growth inhibition (TGI) in assay [1], in assay [17], in assay [2], in assay [3], in [4] and in assay [5] was greater than 100 µM throughout. Further, the TGI in assay [6], in [7], in assay [8], in assay [9], in [10] and in assay [11] was greater than 100 µM in each case. Also, the TGI in assay [12], in assay [14], in assay [15] and in assay [16] was greater than 100 µM each time.

Regarding `CN(C)C(=S)C(Cl)(c1ccccc1)c1ccccc1`, the TGI in assay [1], in assay [17], in assay [2], in [3], in assay [4] and in assay [5] was greater than 100 µM each time. In addition, the TGI in [6] was greater than 100 µM; in [7], 75 µM; in assay [8], greater than 100 µM; in [9], greater than 100 µM; in assay [10] it was 71.6 µM; in assay [11] it was greater than 100 µM. In addition, the TGI in assay [12], in assay [13], in assay [14], in [15] and in assay [16] was greater than 100 µM throughout.

Take `c1ccc2c(c1)c1c3c(c4c(n32)=NCCN4)CCC1`: the TGI in [1] was greater than 100 µM; in assay [17] it was 65.8 µM; in assay [2], greater than 100 µM; in assay [3], greater than 100 µM; in assay [4] it was greater than 100 µM; in [5] it was greater than 100 µM. In addition, the TGI is greater than 100 µM in assay [6]; greater than 100 µM in assay [7]; greater than 100 µM in assay [8]; greater than 100 µM in assay [9]; greater than 100 µM in assay [10]; 59.3 µM in assay [11]. Further, the TGI in assay [12], in assay [13], in assay [14], in assay [15] and in [16] was greater than 100 µM in each case.

In the case of `CCOC(=O)NN(C(=O)OCC)C(=C(C1=CCCCC1)N1CCOCC1)N(NC(=O)OCC)C(=O)OCC`, the TGI in assay [1], in assay [17], in [2], in [3], in assay [5] and in assay [6] was greater than 100 µM each time. For the same compound, the TGI in [7], in assay [8], in assay [9], in assay [10], in assay [11] and in [12] was greater than 100 µM each time. Further, the TGI in assay [15] and in assay [16] was greater than 100 µM each time.

With `COc1ccc(CCNC(=O)c2ccccc2C2c3ccc(OCc4ccccc4)cc3Oc3cc(OCc4ccccc4)ccc32)cc1OC`, the TGI in [1], in assay [17], in assay [2], in [3], in assay [5] and in assay [6] was greater than 100 µM throughout. The concentration for total growth inhibition (TGI) in assay [7], in assay [8], in assay [9], in [10], in [11] and in [14] was greater than 100 µM in each case. Besides, the TGI in [15] and in assay [16] was greater than 100 µM each time.

As for `CC(=O)Oc1c2ccsc2c(OC(C)=O)c2ccsc12`, the TGI in [1] was 5.2 µM; in assay [17], 3.29 µM; in [3], 3.66 µM; in assay [4] it was greater than 21.4 µM; in assay [5], 3.38 µM; in assay [6], 0.833 µM. Moreover, the TGI was 3.63 µM in assay [7]; 3.45 µM in [8]; 1.74 µM in [9]; greater than 26.5 µM in assay [10]; 0.25 µM in assay [11]; 3.57 µM in assay [12]. For the same compound, the TGI in assay [13] turned out to be 0.913 µM; in assay [14], 0.31 µM; in [15], 9.93 µM; in assay [16], 4.2 µM.

For the compound `CCOC(=O)/C(C(=S)NCc1ccccc1)=C(/N)N1CCCC1`, the TGI in [1], in assay [17], in assay [2], in assay [3], in [4] and in [5] was greater than 100 µM in each case. In addition, the TGI in assay [6], in assay [7], in assay [8], in assay [9], in [10] and in assay [11] was greater than 100 µM each time. The TGI in assay [12], in assay [13], in [14] and in assay [16] was greater than 100 µM throughout.

For `CN1C(=O)C(C(=O)Nc2ccccn2)C2C[C@@]1(C)Oc1ccccc12` (some centres not stated), the TGI in assay [1], in [17], in [2], in [3], in assay [4] and in assay [5] was greater than 100 µM in each case. The TGI in assay [6], in [7], in assay [8], in assay [9], in [10] and in [11] was greater than 100 µM throughout. For the same compound, the total growth inhibition concentration (TGI) in assay [12], in assay [14], in assay [15] and in [16] was greater than 100 µM throughout.

What is called TGI is the concentration at which net growth stops.

Values taken from PubChem BioAssay (NCI).
